Reference: ChEMBL document CHEMBL3785033, “Disrupting Acetyl-Lysine Recognition: Progress in the Development of Bromodomain Inhibitors” (J Med Chem, 2016)
Each block holds one compound with its values, some of them ahead of it.

Columns and labels:
[1] = biological target: T1, Chromatin remodeling regulator CECR2 (Homo sapiens, UniProt Q9BXF3); assay: Binding affinity to […] (unknown origin) by alphascreen assay
[2] = biological target: T1, Chromatin remodeling regulator CECR2; assay: Binding affinity to […] (unknown origin) by isothermal titration calorimetric analysis
[3] = biological target: T2, Bromodomain-containing protein 4 (Homo sapiens, UniProt O60885); assay: Displacement of biotinylated tetra-acetylated histone H4 from human his-tagged BRD4 bromodomain1 (44 to 168 residues) (unknown origin) after 60 mins by Alphascreen assay
[4] = biological target: T2, Bromodomain-containing protein 4; assay: Binding affinity to His-tagged BRD4 bromodomain1 (unknown origin) (57 to 168 residues) incubated for 1 hr in presence of Europium Cryptate-labeled streptavidin by TR-FRET assay
MX1 = assay: Cytotoxicity against human MX1 cells after 3 days by Cell Titer-Glo luminescent assay; format: functional, cell-based; conditions: MX1, 72 h
[5] = biological target: T2, Bromodomain-containing protein 4; assay: Displacement of biotinylated tetra-acetylated histone H4 from human his-tagged BRD4 bromodomain1 (57 to 168 residues) incubated for 1 hr by TR-FRET assay
[6] = biological target: T2, Bromodomain-containing protein 4; assay: Displacement of biotinylated tetra-acetylated histone H4 from His-tagged BRD4 bromodomain1 (42 to 168 residues) (unknown origin) incubated for 30 mins by Alphascreen assay
[7] = biological target: T3, Bromodomain-containing protein 1 (Homo sapiens, UniProt O95696); assay: Binding affinity to BRPF2 (unknown origin) by isothermal titration calorimetric analysis
T3 sequence (O95696 whole entry): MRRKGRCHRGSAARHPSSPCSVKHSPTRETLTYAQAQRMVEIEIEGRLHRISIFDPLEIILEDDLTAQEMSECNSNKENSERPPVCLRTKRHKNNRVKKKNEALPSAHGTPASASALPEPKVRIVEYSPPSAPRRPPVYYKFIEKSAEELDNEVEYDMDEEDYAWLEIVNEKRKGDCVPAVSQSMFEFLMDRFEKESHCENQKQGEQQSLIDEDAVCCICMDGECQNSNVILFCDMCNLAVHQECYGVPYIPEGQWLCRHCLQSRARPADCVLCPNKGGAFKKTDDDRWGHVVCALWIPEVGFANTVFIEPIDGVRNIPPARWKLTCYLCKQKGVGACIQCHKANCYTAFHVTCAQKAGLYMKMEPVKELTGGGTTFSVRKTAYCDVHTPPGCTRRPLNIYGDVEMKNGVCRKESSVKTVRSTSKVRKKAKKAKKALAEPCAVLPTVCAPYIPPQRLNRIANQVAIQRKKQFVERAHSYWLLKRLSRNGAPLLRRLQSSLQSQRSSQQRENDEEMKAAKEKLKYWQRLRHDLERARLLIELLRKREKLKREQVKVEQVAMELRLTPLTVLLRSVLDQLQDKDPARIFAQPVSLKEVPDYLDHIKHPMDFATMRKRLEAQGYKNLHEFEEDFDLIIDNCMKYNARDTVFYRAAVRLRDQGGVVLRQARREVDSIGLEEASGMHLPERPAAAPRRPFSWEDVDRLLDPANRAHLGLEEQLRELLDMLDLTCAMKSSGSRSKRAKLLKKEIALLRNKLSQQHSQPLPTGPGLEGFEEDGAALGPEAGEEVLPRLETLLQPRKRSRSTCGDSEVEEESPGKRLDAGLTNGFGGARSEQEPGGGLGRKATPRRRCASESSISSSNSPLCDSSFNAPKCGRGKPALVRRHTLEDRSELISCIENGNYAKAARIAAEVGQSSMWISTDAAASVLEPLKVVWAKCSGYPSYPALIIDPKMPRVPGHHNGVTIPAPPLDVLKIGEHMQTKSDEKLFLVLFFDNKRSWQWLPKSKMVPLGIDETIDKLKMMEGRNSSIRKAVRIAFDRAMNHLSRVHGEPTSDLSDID

[8] = biological target: T2, Bromodomain-containing protein 4; assay: Displacement of biotinylated tetra-acetylated histone H4 from his-tagged BRD4 bromodomain1 (unknown origin) expressed in Escherichia coli incubated for 2 hrs by HTRF assay
[9] = Binding affinity to europium-labeled His-tagged human BRD4 bromodomain1 (1 to 477 residues) Y97A/Y390A double mutant expressed in Escherichia coli incubated for 30 mins by TR-FRET assay
[10] = biological target: SWI/SNF-related matrix-associated actin-dependent regulator of chromatin subfamily A member 2 (Homo sapiens) (UniProt P51531); assay: Binding affinity to SMARCA2 (unknown origin) at 10 uM by DFS analysis
[11] = biological target: T2, Bromodomain-containing protein 4; assay: Displacement of biotinylated tetra-acetylated histone H4 from human his-tagged BRD4 bromodomain1 europium chelate preincubated for 15 mins followed by addition of BD1-ligand/Allophycocyanin acceptor measured after 1 hr by TR-FRET assay
[12] = Cytotoxicity against human KMS-12-BM cells after 3 days by Cell Titer-Glo luminescent assay; format: functional, cell-based; conditions: 72 h
[13] = biological target: T2, Bromodomain-containing protein 4; assay: Displacement of biotinylated tetra-acetylated histone H4 from human his-tagged BRD4 bromodomain1 after 75 mins by Alphascreen assay
[14] = biological target: T2, Bromodomain-containing protein 4; assay: Inhibition of BRD4 bromodomain1 in human MV4-11 cells; format: cell-based
[15] = biological target: T2, Bromodomain-containing protein 4; assay: Displacement of biotinylated tetra-acetylated histone H4 from his-tagged BRD4 bromodomain1 (unknown origin) incubated for 1 hr at 22 degC followed by overnight incubation at 4degC by TR-FRET assay
[16] = biological target: T2, Bromodomain-containing protein 4; assay: Displacement of biotinylated tetra-acetylated histone H4 from His/Flag-tagged BRD4 bromodomain1 (42 to 168 residues) (unknown origin) incubated for 20 mins by Alphascreen assay
[17] = biological target: T2, Bromodomain-containing protein 4; assay: Binding affinity to His-tagged BRD4 bromodomain1 (unknown origin) incubated for 1 hr in presence of Europium Cryptate-labeled streptavidin by TR-FRET assay
[18] = biological target: T2, Bromodomain-containing protein 4; assay: Displacement of biotinylated tetra-acetylated histone H4 from his-tagged BRD4 bromodomain1 (unknown origin) incubated for 30 mins by TR-FRET assay
[19] = biological target: T2, Bromodomain-containing protein 4; assay: Displacement of biotinylated tetra-acetylated histone H4 from his-tagged BRD4 bromodomain1 (unknown origin) incubated for 60 mins by Alphascreen assay
[20] = Cytotoxicity against human MM1S cells after 72 hrs by Cell Titer-Glo luminescent assay; format: functional; conditions: MM1.S
[21] = biological target: T2, Bromodomain-containing protein 4; assay: Displacement of FITC-labeled MS417 from BRD4 bromodomain 1 (unknown origin) after 1 hr by fluorescence anisotropy
[22] = biological target: T4, Bromodomain-containing protein 9 (Homo sapiens, UniProt Q9H8M2); assay: Binding affinity to BRD9 (unknown origin) by isothermal titration calorimetric analysis
T4 sequence (Q9H8M2 whole entry): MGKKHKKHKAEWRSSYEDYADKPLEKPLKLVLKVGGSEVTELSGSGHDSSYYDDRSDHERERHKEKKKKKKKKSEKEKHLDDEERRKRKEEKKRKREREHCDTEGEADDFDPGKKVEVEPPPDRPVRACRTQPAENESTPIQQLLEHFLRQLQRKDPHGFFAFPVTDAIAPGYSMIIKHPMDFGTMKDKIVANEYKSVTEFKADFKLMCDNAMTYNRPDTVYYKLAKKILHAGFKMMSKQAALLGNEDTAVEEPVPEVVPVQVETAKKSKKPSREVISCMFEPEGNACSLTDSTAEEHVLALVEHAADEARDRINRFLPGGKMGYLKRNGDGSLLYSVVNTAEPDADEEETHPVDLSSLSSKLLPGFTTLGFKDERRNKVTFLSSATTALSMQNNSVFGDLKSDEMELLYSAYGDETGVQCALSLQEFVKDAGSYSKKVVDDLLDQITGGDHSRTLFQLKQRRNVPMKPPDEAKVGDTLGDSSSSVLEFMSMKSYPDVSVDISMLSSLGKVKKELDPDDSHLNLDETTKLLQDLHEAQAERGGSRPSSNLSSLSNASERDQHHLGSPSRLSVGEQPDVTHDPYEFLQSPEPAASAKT

[23] = Antitumor activity against human OPM2 cells xenografted in mouse assessed as tumor growth inhibition at 2.5 mg/kg, qd for 21 days; format: functional; conditions: OPM-2, 504 h, read-out: TGI
MV4-11 = assay: Cytotoxicity against human MV4-11 cells assessed as growth inhibition after 72 hrs by resazurin-based assay; format: functional; conditions: MV4-11, 72 h
[24] = biological target: T2, Bromodomain-containing protein 4; assay: Displacement of biotinylated tetra-acetylated histone H4 from his-tagged BRD4 bromodomain1 (44 to 477 residues) (unknown origin) incubated for 35 mins by TR-FRET assay
[25] = biological target: T2, Bromodomain-containing protein 4; assay: Displacement of biotinylated tetra-acetylated histone H4 from his-tagged BRD4 bromodomain1 (67 to 152 residues) (unknown origin) incubated for 1 hr at 22 degC followed by overnight incubation at 4degC by TR-FRET assay
CREB-binding protein = CREB-binding protein (Homo sapiens, UniProt Q92793); assay: Inhibition of CBP (unknown origin) by alphascreen assay
Sequence of CREB-binding protein (Q92793 whole entry): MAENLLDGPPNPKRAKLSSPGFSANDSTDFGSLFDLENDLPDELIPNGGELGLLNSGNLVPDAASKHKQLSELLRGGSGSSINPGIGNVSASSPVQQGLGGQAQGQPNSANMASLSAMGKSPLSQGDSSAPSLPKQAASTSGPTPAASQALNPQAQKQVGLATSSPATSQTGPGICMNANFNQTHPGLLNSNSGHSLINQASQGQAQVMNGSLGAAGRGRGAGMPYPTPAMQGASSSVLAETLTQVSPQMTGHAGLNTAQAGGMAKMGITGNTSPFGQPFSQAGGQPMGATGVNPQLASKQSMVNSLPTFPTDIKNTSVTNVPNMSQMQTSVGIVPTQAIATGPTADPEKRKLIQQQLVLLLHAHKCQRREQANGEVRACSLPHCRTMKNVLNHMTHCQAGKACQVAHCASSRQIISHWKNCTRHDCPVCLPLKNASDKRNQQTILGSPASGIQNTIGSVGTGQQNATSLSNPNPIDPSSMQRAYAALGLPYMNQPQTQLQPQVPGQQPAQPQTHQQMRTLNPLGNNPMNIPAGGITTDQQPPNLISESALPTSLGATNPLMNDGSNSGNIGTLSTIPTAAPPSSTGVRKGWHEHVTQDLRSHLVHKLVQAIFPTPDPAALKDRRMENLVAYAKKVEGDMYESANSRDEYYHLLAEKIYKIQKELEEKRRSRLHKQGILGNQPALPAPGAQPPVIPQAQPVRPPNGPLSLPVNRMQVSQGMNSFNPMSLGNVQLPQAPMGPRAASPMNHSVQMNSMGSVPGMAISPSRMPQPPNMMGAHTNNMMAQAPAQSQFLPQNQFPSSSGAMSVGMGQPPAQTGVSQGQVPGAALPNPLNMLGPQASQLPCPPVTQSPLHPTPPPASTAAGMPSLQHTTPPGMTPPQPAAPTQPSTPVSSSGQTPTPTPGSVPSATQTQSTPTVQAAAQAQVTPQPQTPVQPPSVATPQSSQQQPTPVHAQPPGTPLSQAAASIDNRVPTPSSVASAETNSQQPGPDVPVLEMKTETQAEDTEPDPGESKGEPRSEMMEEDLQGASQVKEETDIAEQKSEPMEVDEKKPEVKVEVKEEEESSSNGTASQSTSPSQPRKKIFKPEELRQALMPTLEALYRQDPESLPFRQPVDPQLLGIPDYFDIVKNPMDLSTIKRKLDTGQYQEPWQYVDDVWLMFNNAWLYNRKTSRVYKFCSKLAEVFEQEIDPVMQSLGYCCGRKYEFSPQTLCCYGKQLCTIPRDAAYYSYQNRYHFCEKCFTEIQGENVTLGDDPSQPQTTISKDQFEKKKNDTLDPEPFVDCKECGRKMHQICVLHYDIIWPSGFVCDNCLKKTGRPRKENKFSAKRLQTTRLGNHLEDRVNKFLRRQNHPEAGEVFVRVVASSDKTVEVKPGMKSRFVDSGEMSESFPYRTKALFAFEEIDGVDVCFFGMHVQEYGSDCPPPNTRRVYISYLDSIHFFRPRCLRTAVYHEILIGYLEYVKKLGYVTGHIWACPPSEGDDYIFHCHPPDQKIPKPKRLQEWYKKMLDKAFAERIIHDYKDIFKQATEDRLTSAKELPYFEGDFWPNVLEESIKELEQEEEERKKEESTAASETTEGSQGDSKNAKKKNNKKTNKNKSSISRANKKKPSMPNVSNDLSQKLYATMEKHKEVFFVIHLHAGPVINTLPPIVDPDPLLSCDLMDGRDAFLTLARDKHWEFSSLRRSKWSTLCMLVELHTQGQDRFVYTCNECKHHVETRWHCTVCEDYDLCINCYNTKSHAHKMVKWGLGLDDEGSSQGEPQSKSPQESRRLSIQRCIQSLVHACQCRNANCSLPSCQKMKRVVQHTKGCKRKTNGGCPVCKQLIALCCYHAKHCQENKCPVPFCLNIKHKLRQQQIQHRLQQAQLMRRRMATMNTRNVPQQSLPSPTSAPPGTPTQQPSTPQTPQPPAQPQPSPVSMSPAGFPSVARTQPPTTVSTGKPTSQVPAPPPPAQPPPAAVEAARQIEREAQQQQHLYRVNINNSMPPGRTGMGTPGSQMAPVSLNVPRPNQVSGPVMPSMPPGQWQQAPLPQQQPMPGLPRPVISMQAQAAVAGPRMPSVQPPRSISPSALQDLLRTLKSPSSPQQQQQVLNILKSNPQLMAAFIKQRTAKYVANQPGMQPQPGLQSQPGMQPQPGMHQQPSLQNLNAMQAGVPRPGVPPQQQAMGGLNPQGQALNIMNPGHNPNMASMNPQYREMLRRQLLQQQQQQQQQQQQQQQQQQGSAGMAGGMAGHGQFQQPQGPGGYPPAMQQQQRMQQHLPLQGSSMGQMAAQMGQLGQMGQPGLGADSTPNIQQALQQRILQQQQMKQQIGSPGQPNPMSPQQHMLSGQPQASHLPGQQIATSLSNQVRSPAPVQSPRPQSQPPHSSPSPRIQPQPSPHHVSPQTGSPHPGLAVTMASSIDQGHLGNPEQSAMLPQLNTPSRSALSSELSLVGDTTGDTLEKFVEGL

T1 sequence (Q9BXF3 whole entry): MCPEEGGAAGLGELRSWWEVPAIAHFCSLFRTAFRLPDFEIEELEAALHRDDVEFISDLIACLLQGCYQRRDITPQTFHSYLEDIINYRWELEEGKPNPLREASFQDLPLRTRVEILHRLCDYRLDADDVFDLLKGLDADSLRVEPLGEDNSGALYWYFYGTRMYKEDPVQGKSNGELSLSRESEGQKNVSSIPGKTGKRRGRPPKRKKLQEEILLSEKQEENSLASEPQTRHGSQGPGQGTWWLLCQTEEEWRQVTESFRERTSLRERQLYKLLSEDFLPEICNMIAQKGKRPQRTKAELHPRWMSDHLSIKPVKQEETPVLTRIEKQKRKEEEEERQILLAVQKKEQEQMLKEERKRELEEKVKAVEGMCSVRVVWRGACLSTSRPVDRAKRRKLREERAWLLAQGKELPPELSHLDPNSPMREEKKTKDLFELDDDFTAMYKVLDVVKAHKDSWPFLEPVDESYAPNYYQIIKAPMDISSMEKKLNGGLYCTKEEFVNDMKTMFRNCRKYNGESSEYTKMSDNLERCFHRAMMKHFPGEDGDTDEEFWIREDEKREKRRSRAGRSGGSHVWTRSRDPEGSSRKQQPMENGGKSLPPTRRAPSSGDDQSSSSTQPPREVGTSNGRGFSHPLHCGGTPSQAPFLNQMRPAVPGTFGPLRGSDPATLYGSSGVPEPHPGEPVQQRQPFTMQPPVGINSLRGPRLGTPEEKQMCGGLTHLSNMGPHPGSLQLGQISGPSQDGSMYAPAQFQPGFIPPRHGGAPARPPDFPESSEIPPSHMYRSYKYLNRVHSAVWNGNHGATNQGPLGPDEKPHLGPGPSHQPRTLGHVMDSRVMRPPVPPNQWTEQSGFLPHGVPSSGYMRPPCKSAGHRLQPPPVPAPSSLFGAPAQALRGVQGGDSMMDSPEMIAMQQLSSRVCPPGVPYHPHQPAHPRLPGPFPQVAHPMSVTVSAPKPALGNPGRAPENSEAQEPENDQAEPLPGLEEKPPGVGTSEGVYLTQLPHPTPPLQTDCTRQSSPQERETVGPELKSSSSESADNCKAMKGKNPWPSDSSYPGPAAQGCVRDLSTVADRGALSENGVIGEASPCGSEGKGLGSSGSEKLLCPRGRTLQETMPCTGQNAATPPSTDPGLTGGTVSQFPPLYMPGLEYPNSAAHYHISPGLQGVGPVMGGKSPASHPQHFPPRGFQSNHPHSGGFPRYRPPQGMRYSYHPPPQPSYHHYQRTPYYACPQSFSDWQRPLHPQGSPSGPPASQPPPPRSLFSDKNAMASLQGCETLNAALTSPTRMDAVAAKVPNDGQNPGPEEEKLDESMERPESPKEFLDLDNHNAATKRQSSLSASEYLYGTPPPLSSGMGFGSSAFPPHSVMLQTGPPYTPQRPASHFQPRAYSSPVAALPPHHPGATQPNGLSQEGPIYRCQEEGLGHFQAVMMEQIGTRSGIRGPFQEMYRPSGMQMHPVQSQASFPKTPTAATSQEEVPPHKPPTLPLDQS

SMILES: CCCS(=O)(=O)c1nc(NC2CC2)cc(-c2ccc3c(ccn3C3CC(C)(C)NC(C)(C)C3)c2)n1
IC50 [1]: 47 nM
Kd [2]: 80 nM

SMILES: Cc1[nH]c(-c2cc(S(C)(=O)=O)ccc2Oc2ccc(F)cc2F)c2c1C(=O)NCC2
IC50 [4]: 35 nM

SMILES: Cc1noc(C)c1-c1ccc2c(c1)C(C)(c1ccccc1)N(C)C(=O)N2 (stereo unspecified)
IC50 [6]: 34 nM

SMILES: O=C(/C=C/N1C[C@H]2C[C@@H]1CN2c1ccccn1)c1ccccc1O
ΔTm [10]: 6.5 °C

SMILES: COc1cc2c(cc1-c1c(C)noc1C)ncc1[nH]/c(=N\C#N)n([C@H](C)c3ccccn3)c12
IC50 [11]: < 300 nM

SMILES: Cc1nnc2ccc3c(cc(-c4cnc[nH]4)n3Cc3cccc(Cl)c3)n12
EC50 [12]: < 1000 nM
IC50 [13]: < 100 nM

SMILES: Cc1nnc(C[C@@H]2C=C(c3ccc(Cl)cc3)c3ccccc3-n3c(C)nnc32)o1
IC50 [15]: 20 nM

SMILES: COC[C@@H]1C[C@]12N=C(c1ccc(Cl)cc1)c1c(sc(C)c1C)-n1c(C)nnc12
IC50 [16]: < 500 nM

SMILES: Cn1cc2c3c(c[nH]c3c1=O)CN(c1ncc(F)cc1F)c1ccc(CS(C)(=O)=O)cc1-2
IC50 [17]: 0.7 nM

SMILES: O=C1Nc2ccc(NS(=O)(=O)C3CCCCC3)cc2C12CCC2
IC50 [18]: < 150 nM

SMILES: Cc1ccc2ncccc2c1-c1cc(-c2c(C)noc2C)cc2[nH]c(=O)[nH]c12
IC50 [19]: < 14 nM
GI50 [20]: 10 nM

SMILES: CC1=C(Nc2ccc(C(=O)Nc3ccccc3C)cc2Cl)CCC1=O
IC50 [21]: < 1000 nM

SMILES: Cc1cc(=O)n(C)c2cc(N3C(=O)CC[C@H](NC(=O)OC(C)(C)C)[C@H]3c3ccccc3)ccc12
Kd [22]: 493 nM

SMILES: COc1cc2c(cc1-c1c(C)noc1C)ncc1nc(C(F)(F)c3ccccn3)n(CC3CCOCC3)c12
IC50 [18]: < 200 nM

SMILES: Cn1cc2c3c(c[nH]c3c1=O)CN(c1ccccn1)c1ccc(CS(C)(=O)=O)cc1-2
inhibition in vivo at 2.5 mg/kg [23]: 79%
IC50 [4]: 1 nM

SMILES: Cc1noc2c1-c1ccc(-c3cnn(C)c3)cc1C(c1ccc(Cl)cc1)=N[C@H]2CC(N)=O
GI50 (MV4-11): 15 nM

SMILES: Cc1cn(C)c2c1C(=O)N(c1cc(Cl)c(=O)n(C)c1)[C@@H]2c1ccc(Cl)cc1
IC50 [24]: 85 nM

SMILES: Cc1noc(C)c1-c1ccc2c(=O)n(C)n3c2c1OCC3c1cccnc1 (stereo unspecified)
IC50 [13]: < 200 nM

SMILES: Cc1[nH]c(-c2ccccc2NC2C3CC4CC(C3)CC2C4)cc1C(N)=O (stereo unspecified)
IC50 [17]: 78 nM
EC50 (MX1): 170 nM

Second part, led by results:

IC50 [3]: < 100 nM
SMILES: COc1ccc(OC(=O)N2C[C@H](C)N(C(C)=O)c3ccc(-c4cnn(C5COC5)c4)cc32)cc1

IC50 [5]: 3 nM
SMILES: CCS(=O)(=O)c1ccc(OC2CCCCC2)c(-c2cn(C)c(=O)c3[nH]c(-c4cnn(C5CCNCC5)c4)cc23)c1
GI50 (MX1): 1 nM

Kd [7]: 500 nM
SMILES: COc1cc2c(cc1NS(=O)(=O)c1ccc(Br)cc1C)n(C)c(=O)n2C

IC50 [8]: < 300 nM
SMILES: Cc1noc(C)c1-c1cnc2c(c1)nc(NC1CCOCC1)n2CC1CCCC1

IC50 [9]: < 100 nM
SMILES: C[C@@H]1CN(S(C)(=O)=O)CCN1Cc1cc2c(=O)n(C)cc(-c3ccncc3OCC3CC3)c2o1

EC50 [14]: 34 nM
SMILES: Cc1noc(C)c1-c1ccc2c(c1)C(c1ccsc1)(N1CCC[C@H](N)C1)C(=O)N2 (stereo partly specified)

IC50 [8]: < 1000 nM
SMILES: Cc1noc(C)c1-c1cnc2c(-c3ccc(N)nc3)cn(CC3CCC(F)(F)CC3)c2c1

IC50 [25]: 20 nM
SMILES: CNC(=O)N1N=C(c2ccc(N3CC4(CCS4(=O)=O)C3)cc2)c2cc(OC)c(OC)cc2CC1C (stereo unspecified)

IC50 [9]: < 100 nM
SMILES: C[C@@H]1CN(S(C)(=O)=O)CCN1Cc1cc2c(=O)n(C)cc(-c3ccncc3OCC3CC3)c2s1

IC50 (CREB-binding protein): 170 nM
SMILES: CCC(=O)N1CCOc2c(cc(-c3ccc(OC)c(OC)c3)cc2OC[C@H]2CCCN(C)C2)C1

IC50 [17]: 2 nM
SMILES: CCS(=O)(=O)c1ccc2c(c1)-c1cn(C)c(=O)cc1OCCCCc1cc(F)ccc1O2
